# Legend:
# giant foxtail [1] = test: Test A preemergence; type: in vivo, Setaria faberii; settings: for Foxtail, Giant plant response rating: 0 to 100 scale, 0 no effect, 100 complete control, approx. 10 days
# How it was run: (§1)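 Scoring: eye-based comparison with untreated controls, 0 for no effect through 100 for complete control, at about day 10. Treatments: directed soil spray preemergence; foliar spray postemergence on 2–10 cm plants at the one- to two-leaf stage. Medium: loam soil with sand.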
# barnyardgrass [2] = test: Test A postemergence; type: in vivo, Echinochloa crus-galli
# How it was run: as §1
# giant foxtail [3] = test: Test A postemergence; type: in vivo, Setaria faberii
# How it was run: as §1
# pigweed = test: Test A postemergence; type: in vivo, Amaranthus retroflexus
# How it was run: as §1
# Heteranthera limosa = test: Test B flooded paddy test; type: in vivo; settings: Flood, 250 g ai/ha; 0 to 100 scale where 0 is no effect and 100 is complete control
# How it was run: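 Evaluation is visual, against untreated controls, 13 to 15 days after treatment. Before treatment, plants reached the 2-leaf stage; pots were then flooded 3 cm deep, compound was added to the water, and that level was maintained. Ratings run 0 to 100, with 100 meaning complete control.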
# blackgrass = test: Test C preemergence; type: in vivo, Alopecurus myosuroides; settings: for Blackgrass plant response rating: preemergence; for Plant response rating, Blackgrass: Preemergence, 31 g ai/ha, scale 0 to 100, 0 no effect, 100 complete control
# How it was run: (§2)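 Plants were kept under greenhouse conditions for 13–15 days following spray. Pre-emergent application went to soil (loam–sand), post-emergent to foliage at 1–4 leaves. Evaluation: visual, percent control against untreated checks.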
# Italian ryegrass [4] = test: Test C preemergence; type: in vivo, Lolium multiflorum; settings: for Ryegrass, Italian plant response rating: preemergence
# How it was run: as §2
# wheat, winter = test: Test C preemergence; type: in vivo, Triticum aestivum; settings: for Wheat plant response rating: preemergence
# How it was run: as §2
# lambsquarters = test: Test C preemergence; type: in vivo, Chenopodium album; settings: for Lambsquarters plant response rating: preemergence
# How it was run: as §2
# barnyardgrass [5] = test: Test C preemergence; type: in vivo, Echinochloa crus-galli; settings: for Barnyardgrass plant response rating: preemergence; for Plant response rating, Barnyardgrass: Preemergence, 31 g ai/ha, scale 0 to 100, 0 no effect, 100 complete control
# How it was run: as §2
# velvetleaf = test: Test C preemergence; type: in vivo, Abutilon theophrasti; settings: for Velvetleaf plant response rating: preemergence
# How it was run: as §2
# Italian ryegrass [6] = test: Test C postemergence; type: in vivo, Lolium multiflorum
# How it was run: as §2
# johnsongrass = test: Test C postemergence; type: in vivo, Sorghum halepense; settings: for Johnsongrass plant response rating / Plant response rating, Johnsongrass: scale 0 to 100 (0 no effect, 100 complete control)
# How it was run: as §2
# soybean = test: Test C postemergence; type: in vivo, Glycine max
# How it was run: as §2
# [7] = 125 g ai/ha, 0 to 100 scale where 0 is no effect and 100 is complete control
# [8] = 500 g ai/ha, 0 to 100 scale where 0 is no effect and 100 is complete control
# [9] = 16 g ai/ha, scale 0 to 100 (0 no effect, 100 complete control)
# [10] = 62 g ai/ha, scale 0 (no effect) to 100 (complete control)
# [11] = 125 g ai/ha, scale 0 (no effect) to 100 (complete control)
# [12] = Preemergence, 31 g ai/ha, scale 0 to 100, 0 no effect, 100 complete control
# [13] = Postemergence, 31 g ai/ha, scale 0 to 100 (0 no effect, 100 complete control), 13 to 15 days
# [14] = Postemergence, 62 g ai/ha, scale 0 to 100 (0 no effect, 100 complete control)
# [15] = 1000 g ai/ha, 0 to 100 scale, 0 no effect, 100 complete control
# [16] = 16 g ai/ha, postemergence, 0 is no effect, 100 is complete control
# [17] = 31 g ai/ha, postemergence, visual rating, scale 0 to 100 (0 no effect, 100 complete control), 13 to 15 days
# [18] = 125 g ai/ha, postemergence, visual rating, scale 0 to 100 (0 no effect, 100 complete control)
structure (smiles),measurement,setting,value
CCOc1cnn(-c2c(C#N)cccc2Oc2ncc(F)cn2)c1 [Compound 89],"Plant response rating, Foxtail, Giant",giant foxtail [1]; [7],90
same,"Foxtail, Giant plant response rating",giant foxtail [1]; 500 g ai/ha,90
same,"Plant response rating, Barnyardgrass",barnyardgrass [2]; [7],40
same,"Plant response rating, Barnyardgrass",barnyardgrass [2]; [8],90
same,"Plant response rating, Foxtail, Giant",giant foxtail [3]; [7],80
same,"Plant response rating, Foxtail, Giant",giant foxtail [3]; [8],90
same,"Plant response rating, Pigweed",pigweed; [7],90
same,"Plant response rating, Pigweed",pigweed; [8],100
same,"Plant response rating, Ducksalad",Heteranthera limosa,95
same,Blackgrass plant response rating,blackgrass; [9],0
same,Blackgrass plant response rating,blackgrass; [10],5
same,Blackgrass plant response rating,blackgrass; [11],50
same,"Plant response rating, Blackgrass",blackgrass,0
same,"Ryegrass, Italian plant response rating",Italian ryegrass [4]; [9],0
same,"Ryegrass, Italian plant response rating",Italian ryegrass [4]; [10],45
same,"Ryegrass, Italian plant response rating",Italian ryegrass [4]; [11],50
same,"Plant response rating, Ryegrass, Italian",Italian ryegrass [4]; [12],5
same,Wheat plant response rating,"wheat, winter; [9]",0
same,Wheat plant response rating,"wheat, winter; [10]",0
same,Wheat plant response rating,"wheat, winter; [11]",5
same,"Plant response rating, Wheat","wheat, winter; [12]",0
same,Lambsquarters plant response rating,lambsquarters; [9],45
same,Lambsquarters plant response rating,lambsquarters; [10],95
same,Lambsquarters plant response rating,lambsquarters; [11],100
same,"Plant response rating, Lambsquarters",lambsquarters; [12],80
same,Barnyardgrass plant response rating,barnyardgrass [5]; [9],5
same,Barnyardgrass plant response rating,barnyardgrass [5]; [10],70
same,Barnyardgrass plant response rating,barnyardgrass [5]; [11],100
same,"Plant response rating, Barnyardgrass",barnyardgrass [5],35
same,Velvetleaf plant response rating,velvetleaf; [9],20
same,Velvetleaf plant response rating,velvetleaf; [10],100
same,Velvetleaf plant response rating,velvetleaf; [11],100
same,"Plant response rating, Velvetleaf",velvetleaf; [12],70
same,"Plant response rating (0 to 100), Ryegrass, Italian","Italian ryegrass [6]; 125 g ai/ha, postemergence",5
same,"Plant response rating, Ryegrass, Italian",Italian ryegrass [6]; [13],0
same,"Plant response rating, Ryegrass, Italian",Italian ryegrass [6]; [14],5
same,Johnsongrass plant response rating,"johnsongrass; 16 g ai/ha, postemergence, visual rating, 13 to 15 days",0
same,"Plant response rating (0 to 100), Johnsongrass","johnsongrass; 125 g ai/ha, postemergence",5
same,"Plant response rating, Johnsongrass","johnsongrass; Postemergence, 31 g ai/ha, 13 to 15 days",5
same,"Plant response rating, Johnsongrass","johnsongrass; Postemergence, 62 g ai/ha",5
same,"Plant response rating (0 to 100), Soybean","soybean; 125 g ai/ha, postemergence",95
same,"Plant response rating, Soybean",soybean; [13],65
same,"Plant response rating, Soybean",soybean; [14],90
FCc1cn(-c2c(F)cccc2Oc2ncc(Cl)cn2)nn1 [Compound 154],"Foxtail, Giant plant response rating",giant foxtail [1]; 1000 g ai/ha,100
same,"Plant response rating, Barnyardgrass",barnyardgrass [2]; [15],100
same,"Plant response rating, Foxtail, Giant",giant foxtail [3]; [15],100
same,"Plant response rating, Pigweed",pigweed; [15],100
same,"Plant response rating, Ducksalad",Heteranthera limosa,80
same,Blackgrass plant response rating,blackgrass; [9],0
same,Blackgrass plant response rating,blackgrass; [10],20
same,Blackgrass plant response rating,blackgrass; [11],90
same,"Plant response rating, Blackgrass",blackgrass,10
same,"Ryegrass, Italian plant response rating",Italian ryegrass [4]; [9],0
same,"Ryegrass, Italian plant response rating",Italian ryegrass [4]; [10],20
same,"Ryegrass, Italian plant response rating",Italian ryegrass [4]; [11],25
same,Wheat plant response rating,"wheat, winter; [9]",0
same,Wheat plant response rating,"wheat, winter; [10]",0
same,Wheat plant response rating,"wheat, winter; [11]",5
same,Lambsquarters plant response rating,lambsquarters; [9],70
same,Lambsquarters plant response rating,lambsquarters; [10],90
same,Lambsquarters plant response rating,lambsquarters; [11],100
same,Barnyardgrass plant response rating,barnyardgrass [5]; [9],5
same,Barnyardgrass plant response rating,barnyardgrass [5]; [10],70
same,Barnyardgrass plant response rating,barnyardgrass [5]; [11],100
same,"Plant response rating, Barnyardgrass",barnyardgrass [5],25
same,Velvetleaf plant response rating,velvetleaf; [9],85
same,Velvetleaf plant response rating,velvetleaf; [10],100
same,Velvetleaf plant response rating,velvetleaf; [11],100
same,"Plant response rating (0 to 100), Ryegrass, Italian",Italian ryegrass [6]; [16],0
same,"Ryegrass, Italian plant response rating",Italian ryegrass [6]; [17],0
same,"Plant response rating, Ryegrass, Italian",Italian ryegrass [6]; [18],0
same,"Plant response rating, Ryegrass, Italian",Italian ryegrass [6]; [14],0
same,"Plant response rating (0 to 100), Johnsongrass",johnsongrass; [16],0
same,Johnsongrass plant response rating,"johnsongrass; 31 g ai/ha, postemergence, visual rating, 13 to 15 days",0
same,"Plant response rating, Johnsongrass","johnsongrass; 125 g ai/ha, postemergence, visual rating",5
same,"Plant response rating, Johnsongrass","johnsongrass; Postemergence, 62 g ai/ha",0
same,"Plant response rating (0 to 100), Soybean",soybean; [16],40
same,Soybean plant response rating,soybean; [17],65
same,"Plant response rating, Soybean",soybean; [18],75
same,"Plant response rating, Soybean",soybean; [14],65

# Reference: patent US9695155B2, “Herbicidal substituted pyrimidinyloxy benzene compounds” (E. I. DU PONT DE NEMOURS AND COMPANY, priority 2013, dated 2017)
